From patent US6770596B1, “Fused tricyclic compounds, process for their preparation, and herbicidal compositions containing them” (Ishihara Sangyo Kaisha Ltd., priority 2002, dated 2004)

Assays:
Format in all cases: in vivo
[1] = system: large crabgrass (Digitaria sanguinalis, DIS); experiment: Post-emerge test, large crabgrass; conditions: 250 g ai/ha, 14 days after application, rating scale 0-100 (0 no damage, 100 complete death)
From the text: (§1) A standard greenhouse herbicide activity screening system was used to evaluate the herbicidal efficacy and crop safety of these test compounds. Seven broadleaf weed species including redroot pigweed (Amaranthus retroflexus, AMR), velvetleaf (Abutilon theophrasti, ABT), sicklepod (Cassia obtusifolia, CAO), ivyleaf morningglory (Ipomoea hederacea, IPH), lambsquarters (Chenopodium album, CHA), common ragweed (Ambrosia artemisiifolia L., AML), and cocklebur (Xanthium strumariunt, XAS) were used as test species. Four grass weed species including green foxtail (Setaria viridis, SEV), barnyardgrass (Echinachloa crus-galli, ECC), johnsongrass (Sorghum halepense, SOH), and large crabgrass (Digitaria sanguinalis, DIS) were also used. In addition, four crop species, field corn (Zea mays L., var. Dekalb 535, CORN), soybean (Glycine max L., var. Pella 86, SOY), upland rice (Oryza sp., var.Tebonnet, RICE), and wheat (Triticum aestivum) were included all plants were grown in 10 cm square plastic pots which were filled with a sandy loam soil mix.
(§2) For pre-emerge tests, seeds were planted one day prior to application of the test compounds. All test compounds were dissolved in acetone and applied to the test pots in a volume of 187 l/ha. Test materials were applied at rates ranging from 8 g ai/ha to 1000 g ai/ha using a track sprayer equipped with a TJ8001E even flow flat fan spray nozzle. This application simulates a typical commercial field herbicide application.
(§3) For post-emerge tests, seeds were planted 8-21 days prior to the test to allow emergence and good foliage development prior to application of the test substances. At the time of the post-emerge application, plants of all species were usually at the 2-3 leaf stage of development. In the postemerge test, a commercial non-ionic surfactant was also included (0.25% v/v) to enhance wetting of the leaf surfaces of target plants.
(§4) At 14 days after application of the test materials, phytotoxicity ratings were recorded. A rating scale of 0-100 was used for both pre and post emerge tests as previously described in Research Methods in Weed Science, 2nd edition, B, Truelove, Ed., Southern Weed Science Society, Auburn University, Auburn, Ala., 1977. Briefly, “0” corresponds to no damage and “100” corresponds to complete death of all plants in the test unit. This scale was used both to determine efficacy against weed species and damage to crop species. Herbicide activity data for various compounds of this invention, which are shown by compound No. in Tables 1-3, are shown in Tables 5 and 6.

[2] = system: johnsongrass (Sorghum halepense, SOH); experiment: Post-emerge test, johnsongrass; conditions: 250 g ai/ha, 14 days after application, rating scale 0-100 (0 no damage, 100 complete death)
From the text: as §1, §2, §3, §4

[3] = system: soybean (Glycine max L., var. Pella 86, SOY); experiment: Post-emerge test, crop damage soybean; conditions: post-emerge, 250 g ai/ha, 14 days after application, rating scale 0-100 (0 no damage, 100 complete death)
From the text: as §1, §2, §3, §4

[4] = system: sicklepod (Cassia obtusifolia, CAO); experiment: Post-emerge test, sicklepod; conditions: 250 g ai/ha, 14 days after application, rating scale 0-100 (0 no damage, 100 complete death)
From the text: as §1, §2, §3, §4

[5] = system: wheat (Triticum aestivum); experiment: Pre-emerge test, crop damage wheat; conditions: pre-emerge, 250 g ai/ha, 14 days after application, rating scale 0-100 (0 no damage, 100 complete death)
From the text: as §1, §2, §4

[6] = system: lambsquarters (Chenopodium album, CHA); experiment: Post-emerge test, lambsquarters; conditions: 250 g ai/ha, 14 days after application, rating scale 0-100 (0 no damage, 100 complete death)
From the text: as §1, §2, §3, §4

[7] = system: common ragweed (Ambrosia artemisiifolia L., AML); experiment: Pre-emerge test, common ragweed; conditions: 250 g ai/ha, 14 days after application, rating scale 0-100 (0 no damage, 100 complete death)
From the text: as §1, §2, §4

[8] = system: velvetleaf (Abutilon theophrasti, ABT); experiment: Post-emerge test, velvetleaf; conditions: 250 g ai/ha, 14 days after application, rating scale 0-100 (0 no damage, 100 complete death)
From the text: as §1, §2, §3, §4

[9] = system: ivyleaf morningglory (Ipomoea hederacea, IPH); experiment: Post-emerge test, ivyleaf morningglory; conditions: 250 g ai/ha, 14 days after application, rating scale 0-100 (0 no damage, 100 complete death)
From the text: as §1, §2, §3, §4

[10] = system: green foxtail (Setaria viridis, SEV); experiment: Pre-emerge test, green foxtail; conditions: 250 g ai/ha, 14 days after application, rating scale 0-100 (0 no damage, 100 complete death)
From the text: as §1, §2, §4

[11] = system: ivyleaf morningglory (Ipomoea hederacea, IPH); experiment: Pre-emerge test, ivyleaf morningglory; conditions: 250 g ai/ha, 14 days after application, rating scale 0-100 (0 no damage, 100 complete death)
From the text: as §1, §2, §4

[12] = system: green foxtail (Setaria viridis, SEV); experiment: Post-emerge test, green foxtail; conditions: 250 g ai/ha, 14 days after application, rating scale 0-100 (0 no damage, 100 complete death)
From the text: as §1, §2, §3, §4

[13] = system: cocklebur (Xanthium strumariunt, XAS); experiment: Pre-emerge test, cocklebur; conditions: 250 g ai/ha, 14 days after application, rating scale 0-100 (0 no damage, 100 complete death)
From the text: as §1, §2, §4

[14] = system: redroot pigweed (Amaranthus retroflexus, AMR); experiment: Pre-emerge test, redroot pigweed; conditions: 250 g ai/ha, 14 days after application, rating scale 0-100 (0 no damage, 100 complete death)
From the text: as §1, §2, §4

[15] = system: redroot pigweed (Amaranthus retroflexus, AMR); experiment: Post-emerge test, redroot pigweed; conditions: 250 g ai/ha, 14 days after application, rating scale 0-100 (0 no damage, 100 complete death)
From the text: as §1, §2, §3, §4

[16] = system: common ragweed (Ambrosia artemisiifolia L., AML); experiment: Post-emerge test, common ragweed; conditions: 250 g ai/ha, 14 days after application, rating scale 0-100 (0 no damage, 100 complete death)
From the text: as §1, §2, §3, §4

[17] = system: velvetleaf (Abutilon theophrasti, ABT); experiment: Pre-emerge test, velvetleaf; conditions: 250 g ai/ha, 14 days after application, rating scale 0-100 (0 no damage, 100 complete death)
From the text: as §1, §2, §4

[18] = system: wheat (Triticum aestivum); experiment: Post-emerge test, crop damage wheat; conditions: post-emerge, 250 g ai/ha, 14 days after application, rating scale 0-100 (0 no damage, 100 complete death)
From the text: as §1, §2, §3, §4

[19] = system: large crabgrass (Digitaria sanguinalis, DIS); experiment: Pre-emerge test, large crabgrass; conditions: 250 g ai/ha, 14 days after application, rating scale 0-100 (0 no damage, 100 complete death)
From the text: as §1, §2, §4

[20] = system: upland rice (Oryza sp., var.Tebonnet, RICE); experiment: Post-emerge test, crop damage upland rice; conditions: post-emerge, 250 g ai/ha, 14 days after application, rating scale 0-100 (0 no damage, 100 complete death)
From the text: as §1, §2, §3, §4

[21] = system: cocklebur (Xanthium strumariunt, XAS); experiment: Post-emerge test, cocklebur; conditions: 250 g ai/ha, 14 days after application, rating scale 0-100 (0 no damage, 100 complete death)
From the text: as §1, §2, §3, §4

[22] = system: barnyardgrass (Echinachloa crus-galli, ECC); experiment: Post-emerge test, barnyardgrass; conditions: 250 g ai/ha, 14 days after application, rating scale 0-100 (0 no damage, 100 complete death)
From the text: as §1, §2, §3, §4

[23] = system: field corn (Zea mays L., var. Dekalb 535, CORN); experiment: Post-emerge test, crop damage field corn; conditions: post-emerge, 250 g ai/ha, 14 days after application, rating scale 0-100 (0 no damage, 100 complete death)
From the text: as §1, §2, §3, §4

[24] = system: soybean (Glycine max L., var. Pella 86, SOY); experiment: Pre-emerge test, crop damage soybean; conditions: pre-emerge, 250 g ai/ha, 14 days after application, rating scale 0-100 (0 no damage, 100 complete death)
From the text: as §1, §2, §4

[25] = system: barnyardgrass (Echinachloa crus-galli, ECC); experiment: Pre-emerge test, barnyardgrass; conditions: 250 g ai/ha, 14 days after application, rating scale 0-100 (0 no damage, 100 complete death)
From the text: as §1, §2, §4

[26] = system: johnsongrass (Sorghum halepense, SOH); experiment: Pre-emerge test, johnsongrass; conditions: 250 g ai/ha, 14 days after application, rating scale 0-100 (0 no damage, 100 complete death)
From the text: as §1, §2, §4

[27] = system: sicklepod (Cassia obtusifolia, CAO); experiment: Pre-emerge test, sicklepod; conditions: 250 g ai/ha, 14 days after application, rating scale 0-100 (0 no damage, 100 complete death)
From the text: as §1, §2, §4

[28] = system: lambsquarters (Chenopodium album, CHA); experiment: Pre-emerge test, lambsquarters; conditions: 250 g ai/ha, 14 days after application, rating scale 0-100 (0 no damage, 100 complete death)
From the text: as §1, §2, §4

[29] = system: upland rice (Oryza sp., var.Tebonnet, RICE); experiment: Pre-emerge test, crop damage upland rice; conditions: pre-emerge, 250 g ai/ha, 14 days after application, rating scale 0-100 (0 no damage, 100 complete death)
From the text: as §1, §2, §4

[30] = system: field corn (Zea mays L., var. Dekalb 535, CORN); experiment: Pre-emerge test, crop damage field corn; conditions: pre-emerge, 250 g ai/ha, 14 days after application, rating scale 0-100 (0 no damage, 100 complete death)
From the text: as §1, §2, §4

CC1C(=O)Nc2c3c(cc(F)c2-n2c(=O)cc(C(F)(F)F)n(C)c2=O)OCC(=O)N31 (stereo not drawn) [1-2]
Post-emerge Herbicidal Activity DIS (phytotoxicity rating) [1]: 0
Post-emerge Herbicidal Activity SOH (phytotoxicity rating) [2]: 20
Post-emerge crop damage SOY (phytotoxicity rating) [3]: 50
Post-emerge Herbicidal Activity CAO (phytotoxicity rating) [4]: 0
Pre-emerge crop damage WHEAT (phytotoxicity rating) [5]: 100
Post-emerge Herbicidal Activity CHA (phytotoxicity rating) [6]: 80
Pre-emerge Herbicidal Activity AML (phytotoxicity rating) [7]: 100
Post-emerge Herbicidal Activity ABT (phytotoxicity rating) [8]: 100
Post-emerge Herbicidal Activity IPH (phytotoxicity rating) [9]: 90
Pre-emerge Herbicidal Activity SEV (phytotoxicity rating) [10]: 100
Pre-emerge Herbicidal Activity IPH (phytotoxicity rating) [11]: 100
Post-emerge Herbicidal Activity SEV (phytotoxicity rating) [12]: 60
Pre-emerge Herbicidal Activity XAS (phytotoxicity rating) [13]: 99
Pre-emerge Herbicidal Activity AMR (phytotoxicity rating) [14]: 100
Post-emerge Herbicidal Activity AMR (phytotoxicity rating) [15]: 90
Post-emerge Herbicidal Activity AML (phytotoxicity rating) [16]: 65
Pre-emerge Herbicidal Activity ABT (phytotoxicity rating) [17]: 100
Post-emerge crop damage WHEAT (phytotoxicity rating) [18]: 25
Pre-emerge Herbicidal Activity DIS (phytotoxicity rating) [19]: 100
Post-emerge crop damage RICE (phytotoxicity rating) [20]: 70
Post-emerge Herbicidal Activity XAS (phytotoxicity rating) [21]: 75
Post-emerge Herbicidal Activity ECC (phytotoxicity rating) [22]: 60
Post-emerge crop damage CORN (phytotoxicity rating) [23]: 10
Pre-emerge crop damage SOY (phytotoxicity rating) [24]: 99
Pre-emerge Herbicidal Activity ECC (phytotoxicity rating) [25]: 100
Pre-emerge Herbicidal Activity SOH (phytotoxicity rating) [26]: 100
Pre-emerge Herbicidal Activity CAO (phytotoxicity rating) [27]: 99
Pre-emerge Herbicidal Activity CHA (phytotoxicity rating) [28]: 100
Pre-emerge crop damage RICE (phytotoxicity rating) [29]: 100
Pre-emerge crop damage CORN (phytotoxicity rating) [30]: 100
